Experimental data as given in publication PMC7889231 (Journal of Enzyme Inhibition and Medicinal Chemistry, 2021).
Where two headings read alike, the source gives them in different places.

What was measured:
[1] = test system: HepG-2; assay: MTT anti-proliferative assay, HepG-2; type: cell-based, human; details: for IC50: Homo sapiens
[2] = test system: HCT-116; assay: MTT anti-proliferative assay, HCT-116; type: cell-based, human; details: for IC50: Homo sapiens
[3] = test system: MCF-7; assay: MTT anti-proliferative assay, MCF-7; type: cell-based, human; details: for IC50: Homo sapiens
[4] = test system: tubulin; assay: In vitro tubulin polymerisation inhibition (turbidimetric, fluorescent plate reader); type: biochemical; details: mean of three experiments
Procedure: The inhibition assay on microtubule polymerisation was evaluated turbidimetrically using a fluorescent plate reader.
The effect of the synthesised compounds on tubulin polymerisation was assessed turbidimetrically using a fluorescent plate reader method. The complete procedure was depected in Supplementary data.

[5] = test system: HepG-2, HCT-116, and MCF-7; assay: MTT anti-proliferative assay, ranges stated over several cell lines; type: cell-based; details: Homo sapiens
[6] = test system: HepG-2 cells; assay: Cell cycle analysis by flow cytometry; type: cell-based, human; details: HepG-2, 1.89 µM, 24 h
Procedure: The impact of the most promising compound 25 on cell cycle distribution was assessed. Such analysis gave a better insight into the effect of the synthesised compounds on cancer cell growth inhibition. HepG-2 cells were utilised in this test. The reported method described by Wand et al.[50] was followed.
The effect of the most promising compound 25 on cell cycle was evaluated using flowcytometer[50]^,[53]^,[54] as illustrated in Supplementary data.

[7] = test system: HepG-2 cells; assay: Annexin V-FITC/PI apoptosis assay; type: cell-based, human; details: HepG-2, 1.89 µM, 24 h
Procedure: Annexin V and PI double staining assay[51] was carried out to explore the proposed apoptotic effect of the synthesised compounds. Compound 25 as a representative example was tested against HepG-2 cells. In this test, HepG-2 cells were incubated with compound 25 at a concentration of 1.89 µM for 24 h.
The effect of compound 25 on apoptosis induction was analysed using Annexin V-FITC/PI apoptosis detection kit using flowcytometer[51]^,[55]^,[56] as illustrated in Supplementary data.

[8] = HepG2, MTT, mean ± SD of three experiments, read-out: IC50 HepG-2
[9] = HCT-116, MTT, mean ± SD of three experiments, read-out: IC50 HCT-116
[10] = MCF7, MTT, mean ± SD of three experiments, read-out: IC50 MCF-7
[11] = range over HepG-2, HCT-116 and MCF-7 and over the listed compounds, read-out: IC50 values ranging (all tested cell lines)
[12] = range over HCT-116 and MCF-7 and over the listed compounds, read-out: IC50 values ranging (HCT-116 and MCF-7)

SMILES | IC50 [4] | melting point | IC50 [2, 9] | IC50 [3, 10] | IC50 [5, 11] | IC50 [5, 12] | IC50 [1, 8] | further results
COc1ccc2nc(Cl)c(C3CC(c4ccc(N)cc4)=NN3c3ccc([N+](=O)[O-])cc3[N+](=O)[O-])cc2c1 (stereo not shown) [Compound 24, 4-[5–(2-Chloro-6-methoxyquinolin-3-yl)-1–(2,4-dinitrophenyl)-4,5-dihydro-1H-pyrazol-3-yl]aniline] | 0.146 µM | 139 to 140 °C | – | – | – | – | – | IC50 ([1]; HepG2, read-out: IC50 HepG-2): 3.14 ± 0.1 µM; IC50 ([2]; HCT-116, read-out: IC50 HCT-116): 4.18 ± 0.2 µM; IC50 ([3]; MCF7, read-out: IC50 MCF-7): 4.97 ± 0.1 µM; IC50 ([5]; read-out: IC50 values ranging (all tested cell lines)): 1.78 to 9.19 µM
COc1ccc2nc(Cl)c(C3CC(c4cc(OC)c(OC)c(OC)c4)=NN3c3ccc([N+](=O)[O-])cc3[N+](=O)[O-])cc2c1 (stereo not shown) [Compound 25, 2-Chloro-3-[1–(2,4-dinitrophenyl)-3–(3,4,5-trimethoxyphenyl)-4,5-dihydro-1H-pyrazol-5-yl]-6-methoxyquinoline] | 0.0413 µM | 135 to 136 °C | 1.43 ± 0.1 µM | 4.21 ± 0.1 µM | 1.78 to 9.19 µM | – | 1.89 ± 0.2 µM | times of colchicine cytotoxic activity, HepG-2 ([1]; ratio of IC50 to colchicine): 3.91 times; times of colchicine cytotoxic activity, HCT-116 ([2]; ratio of IC50 to colchicine): 6.51 times; times of colchicine cytotoxic activity, MCF-7 ([3]; ratio of IC50 to colchicine): 2.47 times; effect on cell cycle [6]: arrest the cell cycle at G2/M phase; Cell cycle distribution %Pre-G1 ([6]; control 2.57): 21.46%; Cell cycle distribution %G2-M ([6]; control 13.8): 30.17%; Cell cycle distribution %S ([6]; control 24.83): 28.95%; Cell cycle distribution %G0-G1 ([6]; control 61.37): 40.88%; apoptotic effect relative to control [7]: thirteen times more than the control; Apoptosis Early ([7]; control 0.67): 7.66%; Apoptosis Late ([7]; control 0.72): 11.39%; Necrosis ([7]; control 1.18): 2.41%; apoptotic effect (early and late apoptosis) ([7]; control 1.39%): 19.05%
COc1ccc2nc(Cl)c(-c3cc(-c4cc(OC)c(OC)c(OC)c4)nc(=S)[nH]3)cc2c1 [Compound 28, 6–(2-Chloro-6-methoxyquinolin-3-yl)-4–(3,4,5-trimethoxyphenyl)pyrimidine-2(1H)-thione] | 0.0374 µM | 141 to 142 °C | 5.85 ± 0.3 µM | 7.34 ± 0.2 µM | 1.78 to 9.19 µM | – | 5.47 ± 0.2 µM | –

Continued, in another order:

IC50 [4] | melting point | IC50 [2, 9] | IC50 [3, 10] | IC50 [5, 11] | IC50 [5, 12] | SMILES | IC50 [1, 8] | further results
0.0345 µM | 155 to 156 °C | 2.24 ± 0.2 µM | 5.55 ± 0.2 µM | 1.78 to 9.19 µM | – | COc1ccc2nc(Cl)c(-c3cc(-c4ccc(Cl)cc4)nc(=S)[nH]3)cc2c1 [Compound 26, 6–(2-Chloro-6-methoxyquinolin-3-yl)-4–(4-chlorophenyl)pyrimidine-2(1H)-thione] | 3.62 ± 0.1 µM | –
0.0105 µM | 180 to 181 °C | 6.48 ± 0.2 µM | 9.89 ± 0.4 µM | – | 6.48 to 10.3 µM | COc1ccc2nc(Cl)c(-c3cc(-c4ccc(Cl)cc4)nc(=O)[nH]3)cc2c1 [Compound 32, 6–(2-Chloro-6-methoxyquinolin-3-yl)-4–(4-chlorophenyl)pyrimidin-2(1H)-one] | 8.16 ± 0.2 µM | –
0.0472 µM | 171 to 172 °C | 8.5 ± 0.2 µM | 10.3 ± 0.5 µM | – | 6.48 to 10.3 µM | COc1ccc2nc(Cl)c(-c3cc(-c4ccc(N)cc4)nc(=O)[nH]3)cc2c1 [Compound 33, 4–(4-Aminophenyl)-6–(2-chloro-6-methoxyquinolin-3-yl)pyrimidin-2(1H)-one] | 9.37 ± 0.4 µM | –
